The results in this text go back to patent publication US20130116227A1, “BIARYL AMIDE DERIVATIVE OR PHARMACEUTICALLY ACCEPTABLE SALT THEREOF” (DAINIPPON SUMITOMO PHARMA CO., LTD., priority 2010, published 2013).

The term IC50 denotes the concentration that gives 50% inhibition. As usually defined, the inhibition is the drop in the measured response relative to a control, in per cent.

The target of the first assay is T1, aldosterone receptor (Rattus norvegicus, UniProt P22199).
T1 construct: centrifuged at 105,000 g for 30 minutes, and then a supernatant was collected as a renal soluble fraction; from tissue; host or cells: rat kidney (adrenalectomized rat), 105,000 g supernatant (cytosol)
T1 sequence (P22199 1-981): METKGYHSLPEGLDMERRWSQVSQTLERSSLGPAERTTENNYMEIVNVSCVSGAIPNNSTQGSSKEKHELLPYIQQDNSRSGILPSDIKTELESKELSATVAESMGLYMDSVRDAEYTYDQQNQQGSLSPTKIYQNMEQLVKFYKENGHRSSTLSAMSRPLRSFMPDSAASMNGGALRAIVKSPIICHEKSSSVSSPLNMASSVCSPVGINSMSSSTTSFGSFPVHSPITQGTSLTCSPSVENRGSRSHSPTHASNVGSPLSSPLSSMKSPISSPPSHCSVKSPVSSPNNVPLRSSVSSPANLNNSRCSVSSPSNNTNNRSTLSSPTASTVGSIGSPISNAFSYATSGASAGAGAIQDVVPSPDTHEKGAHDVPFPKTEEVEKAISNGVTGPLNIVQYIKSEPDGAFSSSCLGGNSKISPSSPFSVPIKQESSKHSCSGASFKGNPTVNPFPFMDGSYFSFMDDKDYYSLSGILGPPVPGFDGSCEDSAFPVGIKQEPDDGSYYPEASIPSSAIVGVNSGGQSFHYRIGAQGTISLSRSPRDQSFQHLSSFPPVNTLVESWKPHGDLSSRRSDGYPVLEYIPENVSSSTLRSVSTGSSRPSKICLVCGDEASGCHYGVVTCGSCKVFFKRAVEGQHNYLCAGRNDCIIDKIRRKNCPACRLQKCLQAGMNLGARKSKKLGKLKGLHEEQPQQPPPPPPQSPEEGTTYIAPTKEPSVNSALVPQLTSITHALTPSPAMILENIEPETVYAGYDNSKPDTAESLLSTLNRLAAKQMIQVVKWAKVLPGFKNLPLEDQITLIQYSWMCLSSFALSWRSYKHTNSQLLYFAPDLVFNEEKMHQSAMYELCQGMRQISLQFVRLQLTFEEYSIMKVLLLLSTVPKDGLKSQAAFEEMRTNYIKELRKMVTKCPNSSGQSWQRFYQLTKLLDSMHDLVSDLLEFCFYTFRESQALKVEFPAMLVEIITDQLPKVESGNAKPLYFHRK
The assay is described as follows: Binding inhibition test for aldosterone receptor ([3H]aldosterone, rat renal soluble fraction). The conditions noted are these: [3H]aldosterone 2 nM, rat renal soluble fraction, in the presence of 2 μM RU-486, 4° C. about 18 hours; read-out: MR IC50. The protocol: Binding Inhibition Test for Aldosterone Receptor
A rat was layed open in flank regions (on both sides) to remove both adrenal glands. After stitching up the incision, the rat was returnd to a breeding cage again. After removing the kidney from the rat reared for about 3 to 5 days, the kidney was homogenized in 0.1 M Tris-HCl, 0.25M sucrose, 0.1M Na2MoO4 and 2 mM DTT buffer solution (pH7.4). The resultant was centrifuged at 105,000 g for 30 minutes, and then a supernatant was collected as a renal soluble fraction.
The rat renal soluble fraction (0.5 to 1.5 mg), a labeled ligand [^3H] aldosterone (2 nM) and a test article were reacted in the presence of 2 μM RU-486 (glucocorticoid receptor antagonist) in 100 μL of total amounts at 4° C. for about 18 hours. Afterwards, to the reaction solution was added 50 μL of 5% dextran-coated activated charcoal, and the mixture was immingled, and then centrifuged at 3,000 g for 5 minutes. Then, a supernatant (100 μL) was collected and mixed with a liquid scintillator ACS-II (Amersham) (3.5 mL), and then analyzed its radioactivity by a liquid scintillation counter (manufactured by Packard, Tri Carb 2700TR). A non-specific binding was obtained by addition of 2 μM aldosterone to a reaction solution. […]
Binding inhibition rate (%)=100−{(B−N)/(B0−N)}×100
B: labeled ligand binding amounts in the presence of a test article and a labeled ligand
B0: labeled ligand binding amounts in the absence of a test article
N: labeled ligand binding amounts in the presence of excess aldosterone (2 μM)
Test example 1 was carried out for compounds obtained in the Examples.
Turning to `COc1cc(NC(=O)c2ccc(-c3ccccc3-c3nc(C)no3)cc2)ccc1S(N)(=O)=O` [Example 46], the IC50 turned out to be 3000 nM.
The same measure, in the same setting: next, `COc1cc(C(=O)Nc2ccc(-c3ccccc3C(F)(F)F)c(CNC3CC3)c2)ccc1S(N)(=O)=O` [Example 403]: 630 nM; `COc1cc(NC(=O)c2ccc(-c3ccccc3C(F)(F)F)c(COCC(OC)OC)c2)ccc1S(N)(=O)=O` [Example 104]: 82 nM; `CNS(=O)(=O)c1ccc(NC(=O)c2ccc(-c3ccccc3C(F)(F)F)cc2)cc1OC` [Example 51]: 200 nM.
As for `COc1cc(NC(=O)c2ccc(-c3ccccc3OC(F)(F)F)c(CO)c2)ccc1S(N)(=O)=O` [Example 122], the IC50 was 60 nM.
Take `COc1ccc(-c2ccc(C(=O)Nc3ccc(S(N)(=O)=O)c(OC)c3)cc2CNCC(F)F)c(C(F)(F)F)c1` [Example 270]: the concentration for half-maximal inhibition (IC50) was 650 nM.
On the same count and under the same terms, next, `CCOC(=O)c1ccccc1-c1ccc(C(=O)Nc2ccc(S(N)(=O)=O)c(OC)c2)cc1` [Example 20]: 550 nM.
The same measure, in the same setting: next, `COc1cc(NC(=O)c2ccc(-c3ccc(N)cc3C(F)(F)F)c(C)c2)ccc1S(N)(=O)=O` [Example 271]: 370 nM.
Regarding `CS(=O)(=O)c1ccc(NC(=O)c2ccc(-c3ccccc3OC(F)(F)F)c(CN3CCSCC3)c2)cc1` [Example 136], the IC50 amounted to 400 nM.
In the case of `COc1cc(NC(=O)c2ccc(-c3ccc(C(F)(F)F)cc3Cl)c(CNCC(F)F)c2)ccc1S(N)(=O)=O` [Example 460], the IC50 is < 10000 nM.
Regarding `COc1cc(NC(=O)c2ccc(-c3ccccc3C(F)(F)F)c(CNCC3CC3)c2)ccc1S(N)(=O)=O` [Example 92], the IC50 stood at 410 nM.
Consider `COc1cc(C(=O)Nc2ccc(-c3ccccc3N3CCCCC3)c(C)c2)ccc1S(N)(=O)=O` [Example 342], for which the IC50 turned out to be 470 nM.
Regarding `COc1cc(C(=O)Nc2ccc(-c3ccc(OCCO)cc3C(F)(F)F)c(CO)c2)ccc1S(N)(=O)=O` [Example 320], the IC50 was found to be 2500 nM.
Take `COc1cc(NC(=O)c2ccc(-c3ccccc3C)cc2)ccc1S(N)(=O)=O` [Example 14]: the half-maximal inhibitory concentration (IC50) was found to be 4700 nM.
Regarding `COCc1cc(NC(=O)c2ccc(S(N)(=O)=O)c(OC)c2)ccc1-c1cccnc1C1CC1` [Example 545], the half-inhibitory concentration (IC50) is < 10000 nM.
For `CCCN(Cc1cc(C(=O)Nc2ccc(S(C)(=O)=O)cc2)ccc1-c1ccccc1OC(F)(F)F)CC1CC1` [Example 500], the IC50 turned out to be 190 nM.
As for `CCC(CC)NCc1cc(NC(=O)c2ccc(S(N)(=O)=O)c(OC)c2)ccc1-c1ccccc1C(F)(F)F` [Example 355], the half-maximal inhibitory concentration (IC50) was determined as 1000 nM.
In the case of `COc1cc(NC(=O)c2ccc(-c3ccccc3C(F)(F)F)c(COCCCO)c2)ccc1S(N)(=O)=O` [Example 103], the half-inhibitory concentration (IC50) stood at 130 nM.
In the case of `COc1cc(C(=O)Nc2ccc(-c3ccccc3NC3CCCC3)c(C)c2)ccc1S(N)(=O)=O` [Example 346], the 50% inhibitory concentration (IC50) is 1100 nM.
Regarding `COc1cc(NC(=O)c2ccc(-c3ccccc3OC(F)(F)F)c(CNc3nnn[nH]3)c2)ccc1S(N)(=O)=O` [Example 293], the IC50 was 270 nM.
In the case of `COc1cc(NC(=O)c2ccc(-c3ccccc3-c3cccs3)c(CO)c2)ccc1S(N)(=O)=O` [Example 257], the IC50 was 84 nM.
In the case of `COc1cc(NC(=O)c2ccc(-c3ccc(F)cc3C(F)(F)F)c(CO)c2)ccc1S(N)(=O)=O` [Example 127], the IC50 stood at 220 nM.
`COc1cccc(NC(=O)c2ccc(-c3ccccc3)c(CN3CCCCC3)c2)c1` [compound 1]: the IC50 is > 10000 nM.
With `COc1cc(NC(=O)c2ccc(-c3ccccc3-c3cccs3)cc2)ccc1S(N)(=O)=O` [Example 42], the IC50 is < 1000 nM.
As to `COC(=O)c1ccccc1-c1ccc(C(=O)Nc2ccc(S(N)(=O)=O)c(OC)c2)cc1` [Example 19], the IC50 is 3300 nM.
For the compound `COc1cc(NC(=O)c2ccc(-c3ccccc3C(F)(F)F)c(CN3CCC3)c2)ccc1S(N)(=O)=O` [Example 94], the IC50 was found to be 820 nM.
For the compound `CCC(C)(C)NCc1cc(C(=O)Nc2ccc(S(C)(=O)=O)cc2)ccc1-c1ccccc1OC(F)(F)F` [Example 206], the IC50 was < 10000 nM.
`COc1cc(NC(=O)c2ccc(-c3ccccc3C(F)(F)F)c(CNCC(F)F)c2)ccc1S(N)(=O)=O` [Example 268]: the IC50 amounted to 990 nM.
On the same count and under the same terms, next, `CCOC(=O)Nc1cc(C(=O)Nc2ccc(S(N)(=O)=O)c(OC)c2)ccc1-c1ccccc1CC` [Example 581]: < 10000 nM; `COc1cc(C(=O)Nc2ccc(-c3ccccc3C(F)(F)F)c(CN3CC(F)(F)C3)c2)ccc1S(N)(=O)=O` [Example 385]: 630 nM.
`COc1cc(NC(=O)c2ccc(-c3ccc(O)cc3C(F)(F)F)cc2)ccc1S(N)(=O)=O` [Example 26]: the half-maximal inhibitory concentration (IC50) was found to be 490 nM.
On the same count and under the same terms, next, `COc1cc(NC(=O)c2ccc(-c3ccccc3OC3CC3)c(CO)c2)ccc1S(N)(=O)=O` [Example 590]: < 10000 nM.
Consider `COc1cc(NC(=O)c2ccc(-c3ccccc3OC(F)(F)F)c(CN3CC(F)(F)C3)c2)ccc1S(N)(=O)=O` [Example 287], for which the IC50 was determined as 250 nM.
On the same count and under the same terms, in the case of `CCN(CC)c1cc(C(=O)Nc2ccc(S(N)(=O)=O)c(OC)c2)ccc1-c1ccccc1C(F)(F)F` [Example 132] it was 290 nM; in that of `COc1cc(C(=O)Nc2ccc(-c3ccc(O)cc3C(F)(F)F)c(CO)c2)ccc1S(N)(=O)=O` [Example 315], 420 nM; in that of `COc1cc(C(=O)Nc2ccc(-c3ccccc3C(F)(F)F)c(CN3CC[C@H](F)C3)c2)ccc1S(N)(=O)=O` [Example 376], 380 nM.
As to `COc1cc(NC(=O)c2ccc(-c3ccccc3C(F)(F)F)c(OCc3ccccc3)c2)ccc1S(N)(=O)=O` [Example 62], the half-maximal inhibitory concentration (IC50) was determined as 1900 nM.
For `CS(=O)(=O)c1ccc(NC(=O)c2ccc(-c3ccccc3OC(F)(F)F)c(CN[C@@H]3CCCc4ccccc43)c2)cc1` [Example 229], the 50% inhibitory concentration (IC50) was < 100 nM.
On the same count and under the same terms, in the case of `COc1cc(NC(=O)c2ccc(-c3ccccc3C(F)(F)F)c(CNC[C@H]3CCCO3)c2)ccc1S(N)(=O)=O` [Example 91] it was 260 nM.
Turning to `COc1cc(NC(=O)c2ccc(-c3ccc(C)cc3C(F)(F)F)c(CNCC(F)F)c2)ccc1S(N)(=O)=O` [Example 440], the IC50 was < 10000 nM.
On the same count and under the same terms, in the case of `COc1cc(NC(=O)c2ccc(-c3cccnc3C3CC3)c(C)c2)ccc1S(N)(=O)=O` [Example 533] it was 1600 nM.
`CCN(Cc1ccccc1)Cc1cc(C(=O)Nc2ccc(S(C)(=O)=O)cc2)ccc1-c1ccccc1OC(F)(F)F` [Example 189]: the IC50 is < 10000 nM.
The same measure, in the same setting: in the case of `COc1cc(C(=O)Nc2ccc(-c3ccccc3C(F)(F)F)c(CN3CCC4(C3)OCCO4)c2)ccc1S(N)(=O)=O` [Example 395] it was 190 nM; in that of `COc1cc(NC(=O)c2ccc(-c3ccccc3C(F)(F)F)c(CCl)c2)ccc1S(N)(=O)=O` [Example 81], 120 nM.
As for `COc1cc(NC(=O)c2ccc(-c3ccccc3OC(F)(F)C(F)F)c(CO)c2)ccc1S(N)(=O)=O` [Example 260], the concentration for half-maximal inhibition (IC50) worked out at 440 nM.
The same measure, in the same setting: next, `COc1cc(C(=O)Nc2ccc(-c3ccccc3OC(F)(F)F)c(CCO)c2)ccc1S(N)(=O)=O` [Example 335]: 350 nM; `COc1cc(C(=O)Nc2ccc(-c3ccccc3C(F)(F)F)c(CN3CC(C)OC(C)C3)c2)ccc1S(N)(=O)=O` (stereo not shown) [Example 371]: 450 nM.

The same assay, now with this note: rat renal soluble fraction, [3H] aldosterone 2 nM, in the presence of 2 μM RU-486.
Take `COc1cccc(NC(=O)c2ccc(-c3ccccc3)c(CN3CCCCC3)c2)c1` [compound 1, reference compound]: the “binding affinities for aldosterone receptor” value was “very few binding affinities”.

The same assay, now with this note: read-out: Inhibition rates (%) in 100 μM.
With `COc1cccc(NC(=O)c2ccc(-c3ccccc3)c(CN3CCCCC3)c2)c1` [compound 1], the inhibition at 100 µM was determined as 7%.
